Experimental data: paper PMC8020607 (Computational Biology and Chemistry, 2021)

Molecular target: T1, C5a (recombinant human C5a) (Homo sapiens, UniProt P01031)
T1 sequence (P01031 678-751 limits assumed): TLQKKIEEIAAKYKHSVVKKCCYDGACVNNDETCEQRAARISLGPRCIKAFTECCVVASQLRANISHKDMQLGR
Experiment: intrinsic tyrosine fluorescence titration, non-linear fit
Assay type: binding

With C[C@]12C=CC(=O)C=C1CC[C@@H]1[C@@H]2C(=O)C[C@@]2(C)[C@H]1CC[C@]2(O)C(=O)CO [prednisone] the Kd was about 380 nM.
